Test results taken from US8815210B2, “Diagnostic composition comprising plasma cations having superior safety profile” (GE Healthcare AS, priority 2009, dated 2014).
Entries after “also recorded” stand apart in the source; their conditions may differ. Read-outs that look alike come from different tables or passages of the source.

Assays:
normal pigs = assay: Haemodynamic effects after LAD injection in normal pigs without balloon occlusion (Example 2b); type: in vivo, pig; settings: 25 ml (0.4 ml/sec) into LAD, 9 injections in 3 pigs
Excerpt: FIG. 5 depicts the effect of Compound I (with and without added Ca) and Visipaque on LVSP 45 to 70 seconds from the start of injection to the LAD of normal pigs normalised to Ringer Lacate (LR) injection.
The haemodynamic effects of compositions of Compound I with and without added CaCl2 were compared to Visipaque and Iopamidol following selective administration to the LAD in normal pigs without balloon occlusion. The effects of each contrast media were normalised to any effects seen with an equivalent injection of Ringer Lactate solution, which acted as a volume and electrolyte—“ratio” control. There were a total of 12 pigs in this study, and each pig received a single CM injected 3 times at volumes of 10 ml (4 ml/sec), 20 ml (1 ml/sec) and 25 ml (0.4 ml/sec) (total of 9 CM injections in each pig). Each CM was either preceded or followed by a control injection of Ringer Lactate, and the order of each injection (volume) was randomised in each pig.

[1] = system: human serum albumin (HSA); assay: Binding to human serum albumin, equilibrium dialysis; type: in vitro ADME; settings: 25 hours, citrated human plasma
Experimental: The binding of Compound I to human serum albumin (HSA) was determined using an equilibrium dialysis method. The binding of Compound I to human serum albumin was determined to be very low, 3.1±1.3%, confirming the negligible interaction of the substance with endogenous proteins.
The binding of Compound I to human serum albumin (HSA) was determined using an equilibrium dialysis method. A stock solution of Compound I (5.0 mg/ml in phosphate buffered saline (PBS)) was mixed with citrate:human plasma in a ratio of 1:9. Equilibration was carried out in a Diachem Dianorm Dialyser against an aqueous phosphate buffered saline using a Diachem 10.17 MW cutoff 10000 membrane and was carried out for 25 hours. Analysis of the solutions was performed using an ICP-AES instrument. In addition, spiked PBS solutions were also equilibrated against citrated human plasma solutions to ensure that the equilibrium had been obtained. The binding of Compound I to human serum albumin was determined to be very low, 3.1±1.3%, confirming the negligible interaction of the substance with endogenous proteins. As a reference, the binding of iodixanol to HSA was determined to 0.4±0.9%.

[2] = system: CD25^+-depleted peripheral blood mononuclear cells; assay: In vitro T cell proliferation model; type: cell-based; settings: 2 and 5 mg I/mL
Experimental: Generally, iodinated contrast media may cause late hypersensitivity reactions in susceptible patients from 1 hour to several days after exposure. These reactions are mainly non-serious skin eruptions such as macular, maculopapular and urticaria-like eruptions. Contrast media-induced delayed adverse reactions (DARs) such as skin eruptions appear to be caused by contrast media-reactive T cells that, upon recognizing the contrast media, proliferate and subsequently orchestrate an inflammatory reaction in the skin. The applicant has evaluated an in vitro T cell proliferation model designed to predict the relative frequency with which contrast media, such as Compound I, will cause late skin reactions in patients post-intravascular administration. Two contrast media, iodixanol and iohexol, with known rates of delayed skin reactions, and the new contrast medium, Compound I, was screened (2 and 5 mg I/mL) for in vitro T cell proliferation in CD25^+-depleted peripheral blood mononuclear cells from 100 donors representing world population HLA-DR frequencies. Positive T cell responses were evaluated according to published protocols and stimulation index values (positive response≧1.9). In vitro toxicity was tested by measuring cell viability of the first 10 donor samples incubated with test contrast media (5 mg I/mL). The results were that all major HLA-DR allotypes were represented with a frequency equivalent to the world population. No contrast media tested appeared to have a meaningful effect on cell viability. […] For iodixanol and iohexol, T cell proliferation responses for most donors occurred on days 7 and 8; statistical significance favored a reduced proliferation response to Compound I on day 8. In conclusions the model successfully established the relative frequency with which contrast media caused in vitro T cell activation. The results correlated with reported frequency of late skin reactions with two marketed contrast media and identified a lower frequency for Compound I.

[3] = octanol/water; cited from earlier work
[4] = Partition coefficient between octanol and water; type: physicochemical; settings: n-octanol/water
Experimental: As a measure of the hydrophilicity of Compound I, the partition coefficient between octanol and water was determined. Water (5 ml) containing the test substance (0.3 mg/ml) was shaken with 15 ml n-octanol until equilibrium had been obtained. The aqueous phase was separated by centrifugation and analyzed by HPLC (HP1100 equipped with a Discovery C18 column, 100×2.1 mm) using UV detection at 244 nm and a flow of 0.3 ml/min. Isocratic HPLC conditions were used, 8% acetonitrile in water (v/v). The octanol phase (12.5 ml) was extracted with water (0.75 ml) until equilibrium had been obtained and the phases were separated by centrifugation. The aqueous phase was analyzed by HPLC using the conditions detailed above. Both octanol and water were pre-saturated with water and octanol, respectively, before the partition coefficient experiments. […] As a comparison, the corresponding logP of iodixanol was determined to −4.02. The reported literature value is −4.05. The increased hydrophilicity of Compound I compared to iodixanol is confirmed by its HPLC behavior.

Sca:SD rats = settings: rat, in vivo
Experimental: Young adult male Sca:SD rats (Scanbur, Sweden), weighing 200±20 g, were injected intravenously at a rate of 1.2 ml/min with either Compound I (340 mgI/mL, 286 mosmol/kg), iodixanol (321 mgI/mL, 284 mosmol/kg), osmotic control mannitol (283 mosmol/kg), or saline (290 mosmol/kg), administered as 2 separate doses 4 hours apart. For the interim kill animals (day 2 post-treatment), Compound I and iodixanol were dosed at 8, 10 and 12.8 gI/kg, corresponding to total dose volumes of 23.7, 29.7 and 38.0 ml/kg, and 25, 31.3 and 40 ml/kg, respectively, whereas for mannitol and saline, the dose volume was 40 ml/kg. For the 7 day terminal kill animals, there were 4 dose groups; Compound I and iodixanol (12.8 gI/kg), and saline and mannitol (40 mL/kg). In all cases, each group included 8 animals.
The following evaluations were made during the study; clinical signs, body weights and blood for haematology and clinical chemistry on days 0, 2 and 7, and gross observations, organ weight and histomorphological examination of tissues from the animals killed by excess intravenous thiopental injection on days 2 or 7. The day of dosing was defined as Day 0. Clinical biochemistry parameters (Na, K, Cl, PO4, Ca, AST, ALT, ALP, cholesterol, creatinine, CK, GGT, TG (triglyceride), total bilirubin, total protein, urea, albumin, LDH and GLDH were measured on a Beckman Synchron CX5 at 37° C. Haematology parameters (WBC, differential WBC, RBC, WBC/RBC ratio, Hgb, PLT, HCT, MCH, MCHC, MCV, MPV and RDW) were analyzed with an Abbott Cell-Dyn 3500 CS automated haematology analyzer. Kidneys from saline control and the 12.8 gI/kg Compound I and iodixanol groups were immerse fixed in 10% neutral buffered formalin, processed into paraffin wax, sectioned at a nominal thickness of 5 μm, stained with haematoxylin and eosin and examined by light microscopy.
The data were analysed by parametric one-way ANOVA, followed by Dunnett's post procedure test, using the 2 days and 7 days saline groups for comparison with the 2 days and 7 days iodixanol and Compound I groups. The statistical analysis was applied on day −1 (baseline), day 2 and day 7.

[5] = Osmolality, vapour pressure osmometer; type: physicochemical; settings: 320 mgI/ml
Experimental: The osmolality of Compound I was determined at four different concentrations, 204, 254, 310 and 324 mgI/ml. The osmolality of Compound I at 320 mgI/ml is 136 mOsm/kg.
The osmolality of Compound I was determined at four different concentrations, 204, 254, 310 and 324 mgI/ml. A Vapro 5520 vapour pressure osmometer from Vapro Inc. was used.
The osmolality of Compound I at 320 mgI/ml is lower than that of iodixanol, 136 mOsm/kg vs 210 mOsm/kg at 320 mgI/ml.

C[C@H](O)C(=O)Nc1c(I)c(C(=O)NC(CO)CO)c(I)c(C(=O)NC(CO)CO)c1I [Iopamidol, reference compound]
induction of ventricular fibrillation (VF) (normal pigs): VF was observed in each case; also recorded: induced VF on every occasion

CC(=O)N(CC(O)CN(C(C)=O)c1c(I)c(C(=O)NCC(O)CO)c(I)c(C(=O)NCC(O)CO)c1I)c1c(I)c(C(=O)NCC(O)CO)c(I)c(C(=O)NCC(O)CO)c1I (stereo not drawn) [iodixanol, reference compound]
binding to human serum albumin (HSA) [1]: 0.4±0.9% | days on which T cell proliferation responses occurred for most donors [2]: days 7 and 8 | logP, reported literature value [3]: −4.05 | logP [4]: -4.02 | Glomerulus: Bowman's Space Proteinaceous Material, Right Kidney (Sca:SD rats; male, Sca:SD, 2 day): P, P, P, 0 | duration of clinical signs (Sca:SD rats; male, Sca:SD, iv): 2 to 3 h | onset of clinical signs after the first administration (Sca:SD rats; male, Sca:SD, iv): 10 to 20 min | Glomerulus: Bowman's Space Proteinaceous Material, Right Kidney (Sca:SD rats): P, P, P, P, | adverse clinical signs (Sca:SD rats; iv): mild to moderate depression and uncoordinated movements and weakness/inactivity | osmolality [5]: 210 mOsm/kg

CC(=O)N(CC(O)CO)c1c(I)c(C(=O)NCC(O)CO)c(I)c(C(=O)NCC(O)CO)c1I (stereo not drawn) [iohexol, reference compound]
days on which T cell proliferation responses occurred for most donors [2]: days 7 and 8
